Data published in EP0419844B1, “N-hydroxy-dibenz[b,e]oxepin-alkylamines and -alkanoic acid amides, related heterocyclic analogues, a process for their preparation and their use in the manufacture of medicaments” (HOECHST-ROUSSEL PHARMACEUTICALS INCORPORATED, priority 1989, dated 1991).

Experiments:
[1] = test system: phenyl-para-quinone induced writhing; assay: Phenyl-para-benzoquinone writhing assay (analgesia); type: in vivo; conditions: Mus musculus, mice; for ED50: sc, subcutaneous dose at which 50% of the phenyl-para-quinone induced writhing is inhibited, read-out: ED₅₀
Source text: The compounds of the present invention are also useful as analgesic agents due to this ability to alleviate pain in mammals. […] Exptl. Biol. Med., 95, 729 (1957)].
The analgesic activity of some of the compounds expressed as either the subcutaneous dose at which 50% of the phenyl-para-quinone induced writhing is inhibited in the animals, i.e., the ED₅₀ value, or as the % decrease in writhing at a given dose is presented in Table 2.

[2] = test system: naja naja (snake venom) phospholipase A₂(PLA₂)-induced paw edema; assay: Phospholipase A2-Induced Paw Edema (PIPE); type: in vivo, male Wistar rats; conditions: for PIPE 0.1 M: 0.1 M test compound injected with PLA2 (3 units/paw) in the subplantar region of the rat left hindpaw, paw displacement at two hours; for ED₅₀: standards of the PIPE assay, PLA2-induced rat paw edema
Method: Phospholipase A₂-Induced Paw Edema (PIPE)
The ability of compounds to reverse naja naja (snake venom) phospholipase A₂(PLA₂)-induced paw edema in male Wistar rats (100-125 gm) was measured. PLA₂ (3 units/100 »l dH₂O/paw) alone or with 0.1 M of the test compound was injected in the sulplantar region of the rat left hindpaw. Immediatly following injection and at two hours post administration, the paw was immersed in a mercury bath, and paw displacement was measured on a recorder via a transducer. The value was then converted to […]. (Standards: Quinacrine ED₅₀ = 0.1 M; Hydrocortisone ED₅₀= 0.46 M). Giessler, A.J. et al., "Agents and Action", Vol. 10, "Trends in Inflammation Research" (1981), p. 195.

[3] = test system: arachidonic acid-induced ear edema; assay: Arachidonic Acid-Induced Mouse Ear Edema (AAEE); type: in vivo, female Swiss Webster mice; conditions: 1 mg/ear topical, 30 minutes before arachidonic acid 4 mg/ear; ear plug weight one hour later, relative to control
Method: Arachidonic Acid-Induced Mouse Ear Edema (AAEE)
In the arachidonic acid-induced ear edema assay, the test compound is dissolved in 30/70 propylene glycol/ethanol and is applied to both ears of groups of 6 female Swiss Webster mice at a volume of 20 »l so that a total of 1.0 mg of test compound as delivered to each ear over the inner and outer surfaces. The mice were housed together in a cage under standard conditions for 1 week prior to use with food and water ad lib. The same volume (20 »l) of vehicle is applied to each ear of a control group of mice. After 30 minutes, arachidonic acid is applied to the right ear of each mouse of each group in the amount of 4 mg/ear. Vehicle is applied to the left ear of each mouse of each group at a volume of 20 »l/ear. After an additional hour, the mice are sacrificed and a 4mm plug is taken from each ear and weighed. The difference between the right and left ear plugs was determined for each animal. The antiinflammatory activity of the test compound is expressed as the mean percent change in the ear plug weight of the treated animals relative to the mean percent change in weights of control animals' ear. (Standard: Indomethacin -90% at 1 mg/ear). Young, J.M. et al., Invest. Dermatol., 80, (1983), pp. 48-52.

TPA-induced ear edema = assay: TPA-Induced Ear Edema (TPAEE); type: in vivo, female Swiss Webster mice; conditions: for TPAEE 10 »g/ear: 10 »g/ear compound topical with 10 »g TPA, ear plug weight after about 5 hours, mean percent change versus control
Method: TPA-Induced Ear Edema (TPAEE)
In the TPA-induced ear edema assay, TPA (12-0-tetradecanoyl-phorbol-13-acetate) is dissolved in 30/70 propylene glycol/ethanol and is applied to the right ear of groups of 6 female Swiss Webster mice at a volume of 20 »l so that a total of 10 »g of TPA is delivered to the inner and outer surfaces of the ear. The mice were housed together in a cage under standard conditions for 1 week prior to use with food and water ad lib. The test compound is dissolved in the vehicle and is applied to the right ear (the inner and outer surfaces) at a volume of 20 »l so that a total of 10 »g of the compound is delivered to the ear. After about 5 hours, the animals are sacrificed and a 4 mm diameter plug is taken from each ear and weighed. The difference between the right and left ear plug weights for each animal was determined. The antiinflammatory activity of the test compound is expressed as the mean percent change in ear plug weight of the treated animals compared to the mean percent change in the plug weight of the control animals. (Standard: Indomethacin: -86% at 1 mg/ear). Young, J.M. et al., J. Invest. Dermatol., 80 (1983), pp. 48-52.

SMILES	PIPE 0.1 M [2]	AAEE % Change @ 1 mg/ear [3] [%]	TPAEE 10 »g/ear (TPA-induced ear edema)	other results
CCN(O)C(=O)C(C)c1ccc2c(c1)C(=O)c1ccccc1CO2 (centres unmarked) [2-(6,11-Dihydro-11-oxodibenz[b,e,]oxepin-2-yl]-N-ethyl-N-hydroxypropanamide]				ED50 [1]: 3.6 mg/kg
CN(O)CCc1ccc2c(c1)C(=O)c1ccccc1CO2 [2-(6,11-Dihydro-11-oxodibenz[b,e]oxepin-2-yl)-N-hydroxy-N-methyl-ethylamine]	-70	-46	-50	
O=C1c2ccccc2COc2ccc(CCC(=O)N(O)C3CCCCC3)cc21 [3-(6,11-Dihydro-11-oxodibenz[b,e]oxepin-2-yl)-N-cyclohexyl-N-hydroxypropanamide]				inhibition at 20 mg/kg [1]: 76%
CN(O)C(=O)CCc1ccc2c(c1)C(=O)c1ccccc1CO2 [3-(6,11-Dihydro-11-oxodibenz[b,e]oxepin-2-yl)-N-hydroxy-N-methylpropanamide]	-46	-63	-71	
C[C@]12CCC(=O)C=C1CC[C@@H]1[C@@H]2[C@@H](O)C[C@@]2(C)[C@H]1CC[C@]2(O)C(=O)CO [Hydrocortisone, reference compound]				ED₅₀ [2]: 0.46 M
COc1ccc2c(c1)c(CC(=O)O)c(C)n2C(=O)c1ccc(Cl)cc1 [Indomethacin, reference compound]		-90		TPAEE percent change in ear plug weight (TPA-induced ear edema; standard, at 1 mg/ear): -86%
O=C1c2ccccc2COc2ccc(CC(=O)N(O)C3CCCCC3)cc21 [N-Cyclohexyl-2-(6,11-dihydro-11-oxodibenz[b,e]oxepin-2-yl)-N-hydroxyacetamide]	-85	-29	-52	inhibition at 20 mg/kg [1]: 68%
CCC(=O)O[C@](Cc1ccccc1)(c1ccccc1)[C@H](C)CN(C)C [Propoxyphene, reference compound]				ED50 [1]: 3.9 mg/kg
CCN(CC)CCCC(C)Nc1c2ccc(Cl)cc2nc2ccc(OC)cc12 (centres unmarked) [Quinacrine, reference compound]				ED₅₀ [2]: 0.1 M
